Toxic doses and inconclusive results are not listed. Cut-off read from the data, not from the text of the source: active = T/C of 150% or more; inactive = T/C below 125%.
Test system: L1210 leukemia ip in BDF1 mice, survival T/C
Assay: NCI In Vivo Anticancer Drug Screen. Data for tumor model L1210 Leukemia (intraperitoneal) in B6D2F1 (BDF1) mice
Conditions: endpoint: mean survival time, higher = longer survival
Procedure, shortened: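 Value reflects the ratio of survival in compound-treated mice to survival in vehicle-treated controls, with both groups carrying the same transplanted tumor.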

[1] = dose: 100.0 mg/kg/injection, schedule: Q04DX003 (ip), vehicle: Klucel (hydroxypropylcellulose) (HPC)
[2] = dose: 200.0 mg/kg/injection, schedule: Q04DX003 (ip), vehicle: Klucel (hydroxypropylcellulose) (HPC)
[3] = dose: 400.0 mg/kg/injection, schedule: Q04DX003 (ip), vehicle: Klucel (hydroxypropylcellulose) (HPC)
[4] = dose: 50.0 mg/kg/injection, schedule: Q01DX001 (ip), vehicle: saline
[5] = dose: 100.0 mg/kg/injection, schedule: Q01DX001 (ip), vehicle: saline
[6] = dose: 200.0 mg/kg/injection, schedule: Q01DX001 (ip), vehicle: saline
[7] = dose: 400.0 mg/kg/injection, schedule: Q01DX001 (ip), vehicle: saline
[8] = dose: 100.0 mg/kg/injection, schedule: Q01DX001 (ip), vehicle: Klucel (hydroxypropylcellulose) (HPC)
[9] = dose: 200.0 mg/kg/injection, schedule: Q01DX001 (ip), vehicle: Klucel (hydroxypropylcellulose) (HPC)
[10] = dose: 400.0 mg/kg/injection, schedule: Q01DX001 (ip), vehicle: Klucel (hydroxypropylcellulose) (HPC)
[11] = dose: 100.0 mg/kg/injection, schedule: Q01DX009 (ip), vehicle: Klucel (hydroxypropylcellulose) (HPC)
[12] = dose: 200.0 mg/kg/injection, schedule: Q01DX009 (ip), vehicle: Klucel (hydroxypropylcellulose) (HPC)
[13] = dose: 100.0 mg/kg/injection, schedule: Q01DX009 (ip), vehicle: saline with Tween-80
[14] = dose: 200.0 mg/kg/injection, schedule: Q01DX009 (ip), vehicle: saline with Tween-80
[15] = dose: 100.0 mg/kg/injection, schedule: Q04DX003 (ip), vehicle: saline
[16] = dose: 200.0 mg/kg/injection, schedule: Q04DX003 (ip), vehicle: saline
[17] = dose: 400.0 mg/kg/injection, schedule: Q04DX003 (ip), vehicle: saline

Measured: T/C

CCCCNC(=O)Nc1ncn[nH]1
inactive: dose: 75.0 mg/kg/injection, schedule: Q01DX001 (ip), vehicle: carboxymethylcellulose (CMC) 103 % of control | dose: 150.0 mg/kg/injection, schedule: Q01DX001 (ip), vehicle: carboxymethylcellulose (CMC) 104 % of control | dose: 300.0 mg/kg/injection, schedule: Q01DX001 (ip), vehicle: carboxymethylcellulose (CMC) 97 % of control

O=C(N/N=C/c1ccccc1Cl)C(O)C(O)C(O)C(O)CO (configuration not stated)
inactive: dose: 100.0 mg/kg/injection, schedule: Q04DX002 (ip), vehicle: saline with Tween-80 112 % of control | dose: 200.0 mg/kg/injection, schedule: Q04DX002 (ip), vehicle: saline with Tween-80 94 % of control | dose: 400.0 mg/kg/injection, schedule: Q04DX002 (ip), vehicle: saline with Tween-80 94 % of control

C[Si](C)Cc1cccc(F)c1
inactive: [1] 105 % of control | [2] 105 % of control | [3] 100 % of control

CCCCCCCCCCCCCCCCC1CCc2ccccc21 (configuration not stated)
inactive: [4] 101 % of control | [5] 101 % of control | [6] 98 % of control | [7] 101 % of control

Cc1cc(Br)ccc1NNS(=O)(=O)c1cccc(N)c1
inactive: [8] 98 % of control | [1] 91 % of control | [9] 107 % of control | [2] 97 % of control | [10] 91 % of control | [3] 107 % of control

CCCCCCCCCCCCNc1nnc(Cl)c2ccccc12
inactive: [1] 95 % of control | [2] 97 % of control | [3] 92 % of control

CC1c2ccccc2C(C)c2c1cc(F)c1ccccc21 (configuration not stated)
inactive: dose: 100.0 mg/kg/injection, schedule: Q04DX002 (ip), vehicle: other 115 % of control | dose: 200.0 mg/kg/injection, schedule: Q04DX002 (ip), vehicle: other 93 % of control | dose: 400.0 mg/kg/injection, schedule: Q04DX002 (ip), vehicle: other 101 % of control

CCc1ccccc1NC(=O)Sc1ccccc1C
inactive: [11] 90 % of control | [1] 110 % of control | [12] 87 % of control | [2] 102 % of control | [3] 100 % of control

O=P(C1CCCC1)(C1CCCC1)C1CCCC1
inactive: dose: 100.0 mg/kg/injection, schedule: Q01DX001 (ip), vehicle: saline with Tween-80 100 % of control | dose: 200.0 mg/kg/injection, schedule: Q01DX001 (ip), vehicle: saline with Tween-80 94 % of control | dose: 400.0 mg/kg/injection, schedule: Q01DX001 (ip), vehicle: saline with Tween-80 92 % of control

COc1ccc(C=C2C3C=CC2C2C(=O)OC(=O)C32)cc1 (configuration not stated)
inactive: [11] 101 % of control | [1] 99 % of control | [12] 97 % of control | [2] 99 % of control | [3] 89 % of control

CC(C)COC(=O)COc1ccccc1
inactive: dose: 100.0 mg/kg/injection, schedule: Q04DX003 (ip), vehicle: saline with Tween-80 104 % of control | dose: 200.0 mg/kg/injection, schedule: Q04DX003 (ip), vehicle: saline with Tween-80 104 % of control | dose: 400.0 mg/kg/injection, schedule: Q04DX003 (ip), vehicle: saline with Tween-80 86 % of control

CC1=C(C(=O)O)CC(S(=O)(=O)O)C1(C)C (configuration not stated)
inactive: dose: 75.0 mg/kg/injection, schedule: Q01DX001 (ip), vehicle: acetone 96 % of control | dose: 150.0 mg/kg/injection, schedule: Q01DX001 (ip), vehicle: acetone 96 % of control | dose: 300.0 mg/kg/injection, schedule: Q01DX001 (ip), vehicle: acetone 92 % of control

COc1ccc(/C=N/NC(=O)CNC(=O)c2ccc(Cl)c(Cl)c2)cc1OC
inactive: dose: 50.0 mg/kg/injection, schedule: Q01DX009 (ip), vehicle: saline with Tween-80 91 % of control | [13] 91 % of control | [14] 102 % of control

COc1cc(C(O)C(Cl)(Cl)Cl)ccc1O (configuration not stated)
inactive: dose: 100.0 mg/kg/injection, schedule: Q04DX003 (ip), vehicle: other 105 % of control | dose: 200.0 mg/kg/injection, schedule: Q04DX003 (ip), vehicle: other 105 % of control | dose: 400.0 mg/kg/injection, schedule: Q04DX003 (ip), vehicle: other 102 % of control

Cc1ccc(C)c(NC(=O)NCc2ccccc2Cl)c1
inactive: [11] 103 % of control | [1] 104 % of control | [12] 101 % of control | [2] 98 % of control | dose: 400.0 mg/kg/injection, schedule: Q01DX009 (ip), vehicle: Klucel (hydroxypropylcellulose) (HPC) 93 % of control | [3] 89 % of control

Cc1ccc(-c2nn3c(-c4ccccc4)nnc3o2)cc1
inactive: [13] 97 % of control | [14] 94 % of control | dose: 400.0 mg/kg/injection, schedule: Q01DX009 (ip), vehicle: saline with Tween-80 102 % of control

N#CC(c1ccc(N)cc1)c1ccc(F)cc1 (configuration not stated)
inactive: [4] 97 % of control | [5] 97 % of control | [6] 97 % of control

CCCCCC(=C/c1ccccc1)/C=N/N=C(N)N
inactive: dose: 15.0 mg/kg/injection, schedule: Q01DX Z (ip), vehicle: saline 93 % of control | dose: 30.0 mg/kg/injection, schedule: Q01DX Z (ip), vehicle: saline 104 % of control | dose: 30.0 mg/kg/injection, schedule: Q01DX Z (oral), vehicle: saline 94 % of control | dose: 60.0 mg/kg/injection, schedule: Q01DX Z (ip), vehicle: saline 98 % of control | dose: 60.0 mg/kg/injection, schedule: Q01DX Z (oral), vehicle: saline 90 % of control | dose: 120.0 mg/kg/injection, schedule: Q01DX Z (oral), vehicle: saline 94 % of control

O=C(C=C(C(F)(F)Cl)C(F)(F)Cl)c1cccs1
inactive: dose: 5.0 mg/kg/injection, schedule: Q01DX009 (ip), vehicle: saline 95 % of control | dose: 10.0 mg/kg/injection, schedule: Q01DX009 (ip), vehicle: saline 88 % of control

O=C(NC(=O)C(Cl)Cl)OC1c2ccccc2-c2ccccc21
inactive: dose: 50.0 mg/kg/injection, schedule: Q01DX001 (ip), vehicle: Klucel (hydroxypropylcellulose) (HPC) 95 % of control | [8] 100 % of control | [11] 90 % of control | [1] 96 % of control | [9] 94 % of control | [12] 93 % of control | [2] 96 % of control | [10] 92 % of control | [3] 95 % of control

[CH3][Sb]1([CH3])([I])[CH2]CC[CH2]1
inactive: [15] 101 % of control | [16] 97 % of control | [17] 101 % of control

CN(C)C(=S)N1C(=O)C2C3CCC(O3)C2C1=O (configuration not stated)
inactive: dose: 3.13 mg/kg/injection, schedule: Q01DX009 (ip), vehicle: saline with Tween-80 102 % of control | dose: 6.25 mg/kg/injection, schedule: Q01DX009 (ip), vehicle: saline with Tween-80 98 % of control | dose: 6.25 mg/kg/injection, schedule: Q04DX002 (ip), vehicle: saline with Tween-80 106 % of control | dose: 12.5 mg/kg/injection, schedule: Q04DX002 (ip), vehicle: saline with Tween-80 87 % of control

COc1cc(C(=O)Cl)cc(OC)c1OC(C)=O
inactive: [5] 93 % of control | [6] 89 % of control | [7] 91 % of control

CC(=O)c1cccc(NC(=O)COc2cc(Cl)c(Cl)cc2Cl)c1
inactive: dose: 100.0 mg/kg/injection, schedule: Q04DX002 (ip), vehicle: Klucel (hydroxypropylcellulose) (HPC) 106 % of control | dose: 200.0 mg/kg/injection, schedule: Q04DX002 (ip), vehicle: Klucel (hydroxypropylcellulose) (HPC) 113 % of control | dose: 400.0 mg/kg/injection, schedule: Q04DX002 (ip), vehicle: Klucel (hydroxypropylcellulose) (HPC) 102 % of control

S=c1[nH]ccn1-c1ccccc1
inactive: dose: 100.0 mg/kg/injection, schedule: Q01DX001 (ip), vehicle: carboxymethylcellulose (CMC) 103 % of control | dose: 200.0 mg/kg/injection, schedule: Q01DX001 (ip), vehicle: carboxymethylcellulose (CMC) 110 % of control | dose: 400.0 mg/kg/injection, schedule: Q01DX001 (ip), vehicle: carboxymethylcellulose (CMC) 101 % of control

O=P(CCl)(CCCl)CCCl
inactive: dose: 50.0 mg/kg/injection, schedule: Q04DX003 (ip), vehicle: saline 101 % of control | [15] 103 % of control | [16] 103 % of control | [17] 89 % of control

CCCCCCCCCCCCCCCCCC(=O)N/N=C/c1ccccc1
inactive: dose: 100.0 mg/kg/injection, schedule: Q01DX009 (ip), vehicle: other 91 % of control | dose: 200.0 mg/kg/injection, schedule: Q01DX009 (ip), vehicle: other 89 % of control | dose: 400.0 mg/kg/injection, schedule: Q01DX009 (ip), vehicle: other 105 % of control
